Assay results published in patent US11000033B2, “Ketone or oxime compound, and herbicide” (NISSAN CHEMICAL CORPORATION, priority 2014, dated 2021).

Assays:
Assay type in all cases: in vivo
[1] = tested on: Stellaria media; experiment: Test Example 4: herbicidal effect by soil treatment (symbol P); details: 320 g/ha
In short: (§1)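 Seeds were sown in sterilized diluvial soil, covered with about 1.5 cm of soil, and the soil surface was sprayed with a water-diluted emulsion of the compound at a predetermined rate. Plants grew in a greenhouse at 25° C. to 30° C.; effects were scored visually 3 weeks after application.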

[2] = tested on: rapeseed; experiment: Test Example 4: effect on crop by soil treatment (symbol g); details: 320 g/ha
In short: (§2)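 Diluvial soil (sterilized) in boxes; seeds placed spot-wise alongside weed species; ~1.5 cm covering soil. Greenhouse, 25–30° C.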

[3] = tested on: Echinochloa oryzacola Vasing.; experiment: Test Example 1: herbicidal activity, application before weed generation in submerged conditions (symbol A); details: application herbicide amount 320 g/ha
In short: (§3)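 Steps: alluvial soil flooded to 4 cm; weed seeds sown together; rice seedlings (2.5 leaf) transplanted; diluted emulsion applied to water surface the same day as sowing; plants grown at 25–30 °C in greenhouse; herbicidal effect rated on a 0–5 scale at 3 weeks.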

[4] = tested on: Setaria viridis; experiment: Test Example 5: herbicidal effect by foliage application, plastic box (symbol G); details: 320 g/ha, 3 weeks after application
In short: (§4)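 Post-emergence spray; diluvial soil (sterilized), ~1.5 cm seed cover; greenhouse 25–30° C; 14-day-old plants; water-diluted emulsion at predetermined dose; visual score at 3 wk post-treatment.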

[5] = tested on: rice; experiment: Test Example 4: effect on crop by soil treatment (symbol b); details: 320 g/ha
In short: as §2

[6] = tested on: Monochoria vaginalis; experiment: Test Example 1: herbicidal activity, application before weed generation in submerged conditions (symbol C); details: application herbicide amount 320 g/ha
In short: as §3

[7] = tested on: Amaranthus retroflexus; experiment: Test Example 5: herbicidal effect by foliage application, plastic box (symbol N); details: 320 g/ha, 3 weeks after application
In short: as §4

[8] = tested on: beet; experiment: Test Example 5: effect on crop by foliage application, plastic box (symbol f); details: 320 g/ha, 3 weeks after application
In short: (§5)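 Plants were raised from seed in a greenhouse (25° C. to 30° C.) after sowing in a plastic box of sterilized diluvial soil.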

[9] = tested on: Scirpus juncoides; experiment: Test Example 1: herbicidal activity, application before weed generation in submerged conditions (symbol B); details: application herbicide amount 320 g/ha
In short: as §3

[10] = tested on: rapeseed; experiment: Test Example 5: effect on crop by foliage application, plastic box (symbol g); details: 320 g/ha, 3 weeks after application
In short: as §5

[11] = tested on: Amaranthus retroflexus; experiment: Test Example 4: herbicidal effect by soil treatment (symbol N); details: 320 g/ha
In short: as §1

[12] = tested on: directly sowed rice plant; experiment: Test Example 3: effect on crop by foliage application, Wagner pot (symbol b); details: application herbicide amount 320 g/ha
In short: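 Wagner pot (1/10000 are), alluvial soil, submerged 0.1–0.5 cm; sown E. crus-galli var. crus-galli, L. chinensis, C. difformis, rice; greenhouse 25–30 °C.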

[13] = tested on: Echinochloa crus-galli var. crus-galli; experiment: Test Example 4: herbicidal effect by soil treatment (symbol H); details: 320 g/ha
In short: as §1

[14] = tested on: Echinochloa crus-galli var. crus-galli; experiment: Test Example 5: herbicidal effect by foliage application, plastic box (symbol H); details: 320 g/ha, 3 weeks after application
In short: as §4

[15] = tested on: Cyperus difformis; experiment: Test Example 3: herbicidal effect by foliage application, Wagner pot (symbol E); details: application herbicide amount 320 g/ha
In short: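 The compound, formulated as an emulsion and diluted with water to a predetermined rate, is applied uniformly to leaves of two-week-old seedlings growing in submerged alluvial soil at 25–30 °C. Rice is included. Each plant is assessed 3 weeks later using defined criteria.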

[16] = tested on: corn; experiment: Test Example 4: effect on crop by soil treatment (symbol c); details: 320 g/ha
In short: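 Sterilized diluvial soil, spot sowing, ~1.5 cm soil cover; greenhouse 25–30° C.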

SMILES | P: Stellaria media, herbicidal effect grade [1] | g: rapeseed, effect grade on crop [2] | Herbicidal effect grade, A: Echinochloa oryzacola Vasing. [3] | G: Setaria viridis, herbicidal effect (criteria 0-5) [4] | b: directly sowed rice plant, effect grade on crop [5] | Herbicidal effect grade, C: Monochoria vaginalis [6] | N: Amaranthus retroflexus, herbicidal effect (criteria 0-5) [7] | f: beet, effect on crop (criteria 0-5) [8] | Herbicidal effect grade, B: Scirpus juncoides [9] | g: rapeseed, effect on crop (criteria 0-5) [10] | N: Amaranthus retroflexus, herbicidal effect grade [11] | effect on crop b (directly sowed rice plant), grade 0-5 [12] | H: Echinochloa crus-galli var. crus-galli, herbicidal effect grade [13] | H: Echinochloa crus-galli var. crus-galli, herbicidal effect (criteria 0-5) [14] | herbicidal effect on E, grade 0-5 [15] | c: corn, effect grade on crop [16]
CON=C(C)CC1CC(OC(=O)c2cnoc2C2CC2)=C(c2c(C)cc(C)cc2C)C1=O (centres unmarked) [1-103] | 0 (Herbicidal ratio of 5% or lower (almost no effect)) | 3 (Herbicidal ratio of 40% or higher and lower than 70%) | 5 (Herbicidal ratio of 90% or more (almost completely withered)) | 5 (Herbicidal ratio of 90% or more (almost completely withered)) | 5 (Herbicidal ratio of 90% or more (almost completely withered)) | 1 (Herbicidal ratio of 5% or higher and lower than 20%) | 0 (Herbicidal ratio of 5% or lower (almost no effect)) | 0 (Herbicidal ratio of 5% or lower (almost no effect)) | 5 (Herbicidal ratio of 90% or more (almost completely withered)) | 4 (Herbicidal ratio of 70% or higher and lower than 90%) | 5 (Herbicidal ratio of 90% or more (almost completely withered)) | 5 (Herbicidal ratio of 90% or more (almost completely withered)) | 5 (Herbicidal ratio of 90% or more (almost completely withered)) | 5 (Herbicidal ratio of 90% or more (almost completely withered)) | 5 (Herbicidal ratio of 90% or more (almost completely withered)) | 5 (Herbicidal ratio of 90% or more (almost completely withered))
CON=C(C)CC1CC(OC(=O)N2CCOCC2)=C(c2c(C)cc(C)cc2C)C1=O (centres unmarked) [1-104] | 0 (Herbicidal ratio of 5% or lower (almost no effect)) | 2 (Herbicidal ratio of 20% or higher and lower than 40%) | 5 (Herbicidal ratio of 90% or more (almost completely withered)) | 5 (Herbicidal ratio of 90% or more (almost completely withered)) | 5 (Herbicidal ratio of 90% or more (almost completely withered)) | 1 (Herbicidal ratio of 5% or higher and lower than 20%) | 0 (Herbicidal ratio of 5% or lower (almost no effect)) | 0 (Herbicidal ratio of 5% or lower (almost no effect)) | 4 (Herbicidal ratio of 70% or higher and lower than 90%) | 4 (Herbicidal ratio of 70% or higher and lower than 90%) | 0 (Herbicidal ratio of 5% or lower (almost no effect)) | 5 (Herbicidal ratio of 90% or more (almost completely withered)) | 5 (Herbicidal ratio of 90% or more (almost completely withered)) | 5 (Herbicidal ratio of 90% or more (almost completely withered)) | 5 (Herbicidal ratio of 90% or more (almost completely withered)) | 1 (Herbicidal ratio of 5% or higher and lower than 20%)
CON=C(C)CON=C(C)CC1CC(O)=C(c2c(C)cc(C)cc2C)C1=O (centres unmarked) [1-105] | 0 (Herbicidal ratio of 5% or lower (almost no effect)) | 3 (Herbicidal ratio of 40% or higher and lower than 70%) | 5 (Herbicidal ratio of 90% or more (almost completely withered)) | 5 (Herbicidal ratio of 90% or more (almost completely withered)) | 5 (Herbicidal ratio of 90% or more (almost completely withered)) | 4 (Herbicidal ratio of 70% or higher and lower than 90%) | 0 (Herbicidal ratio of 5% or lower (almost no effect)) | 0 (Herbicidal ratio of 5% or lower (almost no effect)) | 5 (Herbicidal ratio of 90% or more (almost completely withered)) | 4 (Herbicidal ratio of 70% or higher and lower than 90%) | 4 (Herbicidal ratio of 70% or higher and lower than 90%) | 5 (Herbicidal ratio of 90% or more (almost completely withered)) | 5 (Herbicidal ratio of 90% or more (almost completely withered)) | 5 (Herbicidal ratio of 90% or more (almost completely withered)) | 5 (Herbicidal ratio of 90% or more (almost completely withered)) | 1 (Herbicidal ratio of 5% or higher and lower than 20%)
CCCCCCCCS(=O)(=O)OC1=C(c2c(C)cc(C)cc2C)C(=O)C(CC(C)=NOC)C1 (centres unmarked) [1-107] | 0 (Herbicidal ratio of 5% or lower (almost no effect)) | 2 (Herbicidal ratio of 20% or higher and lower than 40%) | 5 (Herbicidal ratio of 90% or more (almost completely withered)) | 5 (Herbicidal ratio of 90% or more (almost completely withered)) | 5 (Herbicidal ratio of 90% or more (almost completely withered)) | 1 (Herbicidal ratio of 5% or higher and lower than 20%) | 0 (Herbicidal ratio of 5% or lower (almost no effect)) | 0 (Herbicidal ratio of 5% or lower (almost no effect)) | 4 (Herbicidal ratio of 70% or higher and lower than 90%) | 4 (Herbicidal ratio of 70% or higher and lower than 90%) | 0 (Herbicidal ratio of 5% or lower (almost no effect)) | 5 (Herbicidal ratio of 90% or more (almost completely withered)) | 5 (Herbicidal ratio of 90% or more (almost completely withered)) | 5 (Herbicidal ratio of 90% or more (almost completely withered)) | 5 (Herbicidal ratio of 90% or more (almost completely withered)) | 0 (Herbicidal ratio of 5% or lower (almost no effect))
CON=C(C)CC1CC(OC(=O)N(C)C)=C(c2c(C)cc(C)cc2C)C1=O (centres unmarked) [1-108] | 0 (Herbicidal ratio of 5% or lower (almost no effect)) | 4 (Herbicidal ratio of 70% or higher and lower than 90%) | 5 (Herbicidal ratio of 90% or more (almost completely withered)) | 5 (Herbicidal ratio of 90% or more (almost completely withered)) | 5 (Herbicidal ratio of 90% or more (almost completely withered)) | 3 (Herbicidal ratio of 40% or higher and lower than 70%) | 5 (Herbicidal ratio of 90% or more (almost completely withered)) | 1 (Herbicidal ratio of 5% or higher and lower than 20%) | 4 (Herbicidal ratio of 70% or higher and lower than 90%) | 4 (Herbicidal ratio of 70% or higher and lower than 90%) | 0 (Herbicidal ratio of 5% or lower (almost no effect)) | 5 (Herbicidal ratio of 90% or more (almost completely withered)) | 5 (Herbicidal ratio of 90% or more (almost completely withered)) | 5 (Herbicidal ratio of 90% or more (almost completely withered)) | 5 (Herbicidal ratio of 90% or more (almost completely withered)) | 5 (Herbicidal ratio of 90% or more (almost completely withered))
